Data on 1 compound can be found in publication PMC9570838, “JND4135, a New Type II TRK Inhibitor, Overcomes TRK xDFG and Other Mutation Resistance In Vitro and In Vivo” (Molecules, 2022).

One may read the IC50 as the concentration that gives 50% inhibition. What is called Kd is the free concentration of one partner at which half of the binding sites on the other are occupied at equilibrium, for simple one-to-one binding.

One experiment deals with T1, TRKB (Homo sapiens, UniProt Q16620).
T1 construct: purchased Invitrogen
The experiment is described as follows: FRET-based Z'-Lyte kinase assay. The format is biochemical. The following applies: mean ± SD, read-out: IC50 TRKB kinase inhibition. The protocol:
(§1) TRKA/B/C and the Z′-Lyte Kinase Assay Kit were purchased from Invitrogen. Assays were performed according to the manufacturer’s instructions. […] The solutions of the compounds were diluted from 10^−10 M to […] in DMSO and a 400 μM solution of the compound was prepared with 4 μL of the solution of the compound dissolved in 96 μL water. […] For each assay, 10 μL of a kinase solution, including 2.5 μL of the compound solution, 5 μL of the kinase/peptide mixture, and 2.5 μL of the ATP solution was prepared. The plate wells were mixed thoroughly and incubated for 1 h at room temperature (rt). Then 5 μL of the development solution was added to each well and the plate was incubated for 1 h at rt; the […] were cleaved in this time. Finally, 5 μL of stop reagent was added to stop the reaction. For the control setting, 5 μL of the phosphopeptide solution instead of the kinase/peptide mixture was used as a 100% phosphorylation control. […] The plate was measured on an EnVision Multilabel Reader (Perkin-Elmer). Curve fitting and data presentation was performed using GraphPad Prism, version 5.0. Every experiment was repeated at least 2 times.

A further experiment has as its target T2, TRKC (Homo sapiens, UniProt Q16288).
T2 construct: purchased Invitrogen
The experiment is described as follows: FRET-based Z'-Lyte kinase assay. Conditions: mean ± SD, read-out: IC50 TRKC kinase inhibition. It is filed as biochemical. The procedure: as §1

For a further experiment, the target named is TRKA-G667C (Homo sapiens, UniProt P04629, G667C). The experiment is described as follows: FRET-based Z'-Lyte kinase assay. The format is biochemical. The protocol: as §1
For the next experiment, the system named is BaF3 ETV6-TRKB-F633L. The experiment is described as follows: BaF3 cell proliferation, CCK-8 assay. Conditions: Mus musculus, BaF3, 72 h, read-out: IC50 (nM ± SD) Gatekeeper ETV6-TRKB-F633L. (Tetrazolium assays rely on reduction of a dye to a coloured formazan, in cell work by metabolically active cells.)
The subject of experiment [1] is BaF3-CD74-TRKA-WT cells (p-TRKA, ERK, PLCγ). In words: Western blot of TRK signaling. The format is cell-based, Murine. The following applies: 6 h treatment. The protocol:
(§2) Cells were treated with various concentrations of each tested compound for a designated time. Then cells were lysed using 1 × SDS sample lysis buffer (CST recommended) with protease and phosphatase inhibitors. […] The films were blocked with 5% fat-free milk in TBS solution containing 0.5% Tween-20 for 4 h at room temperature, then incubated with the corresponding primary antibody (1:1000–1:200) overnight at 4 °C. After washing with TBST, HRP-conjugated secondary antibody was incubated for 2 h. The protein signals were visualized by ECL Western Blotting Detection Kit (Thermo Scientific, Waltham, MA, USA), and detected with Amersham Imager 600 system (GE, Boston, MA, USA).
Background: Immunoblotting shows a protein as a band on a membrane.

Experiment [2] deals with BaF3-CD74-TRKA-G595R cells (p-TRKA, ERK, PLCγ). In words: Western blot of TRK signaling. It is filed as cell-based, Murine. Conditions: 6 h treatment. The protocol: as §2
Experiment [3] has as its system BaF3-CD74-TRKA-G667C cells (p-TRKA, ERK, PLCγ). The experiment is described as follows: Western blot of TRK signaling. It is filed as cell-based, Murine. Conditions: 6 h treatment. The procedure: as §2
Experiment [4] deals with BaF3 cells with gatekeeper mutations (TRKA^F589L, TRKB^F663L, TRKC^F617L). The experiment is described as follows: BaF3 cell proliferation, summary over gatekeeper lines. The following applies: Mus musculus, BaF3, read-out: IC50 in cells with gatekeeper mutations.
Experiment [5] deals with BaF3 cells with solvent front mutations (TRKA^G595R, TRKB^G639R, TRKC^G623R). In words: BaF3 cell proliferation, summary over solvent front lines. Conditions: Mus musculus, BaF3, read-out: IC50 range in cells with solvent front mutations.
A further experiment deals with BaF3 ETV6-TRKB-G639R. The experiment is described as follows: BaF3 cell proliferation, CCK-8 assay. The following applies: Mus musculus, BaF3, 72 h, read-out: IC50 (nM ± SD) Solvent Front ETV6-TRKB-G639R.
In a further experiment the test system is BaF3 CD74-TRKA. The experiment is described as follows: BaF3 cell proliferation, CCK-8 assay. The following applies: Mus musculus, BaF3, 72 h, read-out: IC50 (nM ± SD) WT CD74-TRKA.
Experiment [6] concerns parental BaF3 cells (phospho-ERK). The experiment is described as follows: Western blot in parental BaF3 cells (Figure S1). The following applies: parental BaF3 cells driven by IL-3 (Figure S1). It is filed as cell-based, Murine. The procedure: as §2
The target in experiment [7] is T3, TRKC WT (Homo sapiens, UniProt Q16288).
T3 construct: residues 526–839 from the kinase domain; made in house
The experiment is described as follows: Bio-layer interferometry (BLI) Octet binding assay. The procedure:
(§3) Biolayer interferometry (BLI) assays were performed with the Octet K2 machine (ForteBio, Inc., Fremont, CA, USA). […] Excess biotin was removed by column chromatography (PD MiniTrap^TM G-25 Desalting column, Lot#17030445), and the residue was diluted to 400 μL with PBS and immobilized onto Super streptavidin biosensor chips (ForteBio, Cat#18–5057). A duplicate set of sensors was incubated in an assay buffer (PBS containing 0.02% Tween20 and 0.1% BSA) with 5% DMSO but without protein for use as a background binding control. Both sets of sensors were blocked with a solution of 10 μg/mL biocytin for 1 min at rt. Drug concentrations ranged from 0.74 to 180 nmol/L (6 doses). Data was analyzed by the FortéBio Data Analysis 8.1 software (FortéBio, Fremont, CA, USA) using a double reference subtraction (sample and sensor references).

Experiment [8] deals with TRKC WT. In words: Bio-layer interferometry (BLI) Octet binding assay. The arrangement: species or system Human. Conditions: TRKC-WT and TRKC-G696C. The procedure:
as §3
A general note: BLI is a label-free optical method that tracks binding on a fibre tip over time.

For a further experiment, the system named is BaF3 CD74-TRKA-F589L. The experiment is described as follows: BaF3 cell proliferation, CCK-8 assay. The following applies: Mus musculus, BaF3, 72 h, read-out: IC50 (nM ± SD) Gatekeeper CD74-TRKA-F589L.
The next experiment deals with BaF3 ETV6-TRKC-G696C. In words: BaF3 cell proliferation, CCK-8 assay. Conditions: Mus musculus, BaF3, 72 h, read-out: IC50 (nM ± SD) xDFG ETV6-TRKC-G696C.

For `Cc1c(C#Cc2cnc3cnc(-c4ccc(N)cc4)cn23)cccc1C(=O)Nc1cc(CN2CCN(C)CC2)cc(C(C)C)c1` [JND4135, 3-((6-(4-aminophenyl)imidazo[1,2-a]pyrazin-3-yl)ethynyl)-N-(3-isopropyl-5-((4-methylpiperazin-1-yl)methyl)phenyl)-2-methylbenzamide], the half-maximal inhibitory concentration (IC50) was 3.19 ± 1.76 nM on TRKB; 3.01 ± 0.43 nM at TRKC; 0.83 ± 0.06 nM on TRKA-G667C (Z'-Lyte, mean ± SD, read-out: IC50 TRKA-G667C kinase inhibition); 178 ± 4.3 nM with BaF3 ETV6-TRKB-F633L; 37.3 to 178 nM in experiment [4]; 9.4 to 33.7 nM in [5]. The half-inhibitory concentration (IC50) with BaF3 ETV6-TRKB-G639R worked out at 10.1 ± 3.9 nM; in the experiment with BaF3 CD74-TRKA, 10.4 ± 3.2 nM; in the experiment on BaF3 CD74-TRKA-F589L, 75 ± 12.7 nM; with BaF3 ETV6-TRKC-G696C, 1.3 ± 0.7 nM. Besides, the “fold stronger kinase inhibition of TRKA-G667C than TRKA-WT” value at TRKA-G667C is given as 3.3 fold. Also, the “concentration from which phosphorylation of TRKA and downstream ERK, PLCγ decreased” value was 8 nM in experiment [1], 40 nM in [2] and 1.6 nM in [3]. The “effect on phospho-ERK levels” value in experiment [6] is on record as “increased the phospho-ERK levels”. The koff at TRKC WT [7] (Koff, read-out: dissociation rate with TRKC-WT) came to 0.000278 s⁻¹. On TRKC WT [7] (read-out: Kd, binding affinity to TRKC-WT), the dissociation constant Kd is 2.57 nM. Also, in the experiment on TRKC WT [8], the “fold slower dissociation rate than that of control drugs” value was 3.81–27.85 fold.
